Measured values published in PubChem BioAssay AID248 (DTP/NCI, 2004).
Several values for one entry are separate records, joined by “and”; a condition that tells them apart may be missing. Identical values can stand only once. Toxic doses and inconclusive results are not listed. Cut-off read from the data, not from the text of the source: active = T/C of 150% or more; inactive = T/C below 125%.

System: L1210 leukemia ip in BDF1 mice, survival T/C
Experiment: NCI In Vivo Anticancer Drug Screen. Data for tumor model L1210 Leukemia (intraperitoneal) in B6D2F1 (BDF1) mice
Conditions: endpoint: mean survival time, higher = longer survival
Procedure, shortened: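 Transplantable tumor model; survival measured in treated vs vehicle control mice. Value = treated/control.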

[1] = dose: 25.0 mg/kg/injection, schedule: Q01DX009 (ip), vehicle: saline
[2] = dose: 100.0 mg/kg/injection, schedule: Q04DX002 (ip), vehicle: Klucel (hydroxypropylcellulose) (HPC)
[3] = dose: 200.0 mg/kg/injection, schedule: Q04DX002 (ip), vehicle: Klucel (hydroxypropylcellulose) (HPC)
[4] = dose: 100.0 mg/kg/injection, schedule: Q01DX009 (ip), vehicle: saline with Tween-80
[5] = dose: 200.0 mg/kg/injection, schedule: Q01DX009 (ip), vehicle: saline with Tween-80
[6] = dose: 100.0 mg/kg/injection, schedule: Q01DX009 (ip), vehicle: Klucel (hydroxypropylcellulose) (HPC)
[7] = dose: 200.0 mg/kg/injection, schedule: Q01DX009 (ip), vehicle: Klucel (hydroxypropylcellulose) (HPC)
[8] = dose: 100.0 mg/kg/injection, schedule: Q01DX001 (ip), vehicle: Klucel (hydroxypropylcellulose) (HPC)
[9] = dose: 200.0 mg/kg/injection, schedule: Q01DX001 (ip), vehicle: Klucel (hydroxypropylcellulose) (HPC)
[10] = dose: 100.0 mg/kg/injection, schedule: Q01DX009 (ip), vehicle: saline
[11] = dose: 100.0 mg/kg/injection, schedule: Q01DX001 (sc), vehicle: steriod suspending solution
[12] = dose: 200.0 mg/kg/injection, schedule: Q01DX001 (sc), vehicle: steriod suspending solution
[13] = dose: 400.0 mg/kg/injection, schedule: Q01DX001 (sc), vehicle: steriod suspending solution

Measured: T/C

C[N+]1(C)Cc2ccccc2-c2ccccc2C1
inactive: dose: 12.0 mg/kg/injection, schedule: Q04DX003 (ip), vehicle: saline 121 % of control | dose: 12.5 mg/kg/injection, schedule: Q01DX009 (ip), vehicle: saline 103 % of control | [1] 111 % of control | dose: 25.0 mg/kg/injection, schedule: Q04DX003 (ip), vehicle: saline 94 % of control | dose: 50.0 mg/kg/injection, schedule: Q04DX003 (ip), vehicle: saline 106 % of control

O=C(Nc1ccc(Br)cc1)Oc1ccccc1C(=O)OCc1ccccc1
inactive: [2] 97 % of control | [3] 87 % of control

CCCCN(CCC#N)CCCC
inactive: dose: 25.0 mg/kg/injection, schedule: Q04DX003 (ip), vehicle: saline with Tween-80 111 % of control | dose: 29.5 mg/kg/injection, schedule: Q01DX009 (ip), vehicle: saline with Tween-80 107 % of control | dose: 50.0 mg/kg/injection, schedule: Q04DX003 (ip), vehicle: saline with Tween-80 105 % of control | dose: 59.0 mg/kg/injection, schedule: Q01DX009 (ip), vehicle: saline with Tween-80 107 % of control | dose: 100.0 mg/kg/injection, schedule: Q04DX003 (ip), vehicle: saline with Tween-80 97 % of control | dose: 118.0 mg/kg/injection, schedule: Q01DX009 (ip), vehicle: saline with Tween-80 108 % of control

CNC(=O)Oc1cccc(NC(=O)C=C(C)C)c1
inactive: [4] 91 % of control | [5] 89 % of control

O=C(O)C(CCCN1C(=O)c2ccccc2C1=O)N1C(=O)c2ccccc2C1=O (stereo unspecified)
inactive: [6] 93 % of control | [7] 94 % of control | dose: 400.0 mg/kg/injection, schedule: Q01DX009 (ip), vehicle: Klucel (hydroxypropylcellulose) (HPC) 98 % of control

OC1CCC2C=CCC1S2 (stereo unspecified)
inactive: dose: 100.0 mg/kg/injection, schedule: Q01DX009 (ip), vehicle: gum acacia 101 % of control | dose: 200.0 mg/kg/injection, schedule: Q01DX009 (ip), vehicle: gum acacia 100 % of control | dose: 400.0 mg/kg/injection, schedule: Q01DX009 (ip), vehicle: gum acacia 97 % of control

CN1CCCC(CC2c3ccccc3Sc3ccccc32)C1 (stereo unspecified)
inactive: dose: 2.0 mg/kg/injection, schedule: Q01DX015 (ip), vehicle: carboxymethylcellulose (CMC) 108 % of control | dose: 4.0 mg/kg/injection, schedule: Q01DX015 (ip), vehicle: carboxymethylcellulose (CMC) 98 % of control | dose: 8.0 mg/kg/injection, schedule: Q01DX015 (ip), vehicle: carboxymethylcellulose (CMC) 97 % of control | dose: 16.0 mg/kg/injection, schedule: Q01DX015 (ip), vehicle: carboxymethylcellulose (CMC) 91 % of control | dose: 32.0 mg/kg/injection, schedule: Q01DX015 (ip), vehicle: carboxymethylcellulose (CMC) 92 % of control

O=C1c2ccccc2C(=O)N1SN1C(=O)c2ccccc2C1=O
inactive: dose: 25.0 mg/kg/injection, schedule: Q01DX009 (ip), vehicle: Klucel (hydroxypropylcellulose) (HPC) 92 % of control | dose: 50.0 mg/kg/injection, schedule: Q01DX009 (ip), vehicle: Klucel (hydroxypropylcellulose) (HPC) 93 % of control | [6] 97 % of control

C=C(C)Cc1cnc(SC)[nH]c1=O
inactive: dose: 50.0 mg/kg/injection, schedule: Q01DX001 (ip), vehicle: Klucel (hydroxypropylcellulose) (HPC) 98 % of control | [8] 100 % of control | [9] 98 % of control

COC(=O)C1c2ccccc2-c2ccccc21
inactive: dose: 50.0 mg/kg/injection, schedule: Q01DX009 (ip), vehicle: saline with Tween-80 97 % of control | [4] 107 % of control | [5] 96 % of control

Cc1c(C(=O)/C=C/c2ccccc2)cc([N+](=O)[O-])cc1[N+](=O)[O-]
inactive: dose: 50.0 mg/kg/injection, schedule: Q01DX001 (ip), vehicle: saline 92 % of control | dose: 100.0 mg/kg/injection, schedule: Q01DX001 (ip), vehicle: saline 98 % of control | dose: 200.0 mg/kg/injection, schedule: Q01DX001 (ip), vehicle: saline 100 % of control | dose: 400.0 mg/kg/injection, schedule: Q01DX001 (ip), vehicle: saline 93 % of control

Cc1cc(C)c(N(C)C(=O)CCC(=O)O)c(C)c1Br
inactive: [8] 97 % of control | [6] 93 % of control | [9] 97 % of control | [7] 93 % of control | dose: 400.0 mg/kg/injection, schedule: Q01DX001 (ip), vehicle: Klucel (hydroxypropylcellulose) (HPC) 104 % of control

O=C1OC(=O)C2C1C1(Cl)C(Cl)=C(Cl)C2(Cl)C2C(=O)OC(=O)C21 (stereo unspecified)
inactive: [10] 94 % of control | dose: 100.0 mg/kg/injection, schedule: Q04DX003 (ip), vehicle: saline 95 % of control | dose: 200.0 mg/kg/injection, schedule: Q01DX009 (ip), vehicle: saline 90 % of control | dose: 200.0 mg/kg/injection, schedule: Q04DX003 (ip), vehicle: saline 95 % of control | dose: 400.0 mg/kg/injection, schedule: Q01DX009 (ip), vehicle: saline 91 % of control | dose: 400.0 mg/kg/injection, schedule: Q04DX003 (ip), vehicle: saline 95 % of control

CCCC(=O)N1CCCCC1C (stereo unspecified)
inactive: [2] 112 % of control | [3] 89 % of control

C[C@]12CC[C@H]3[C@@H](CCC4=CC(=O)CC[C@@]43CO)[C@@H]1CC[C@@H]2O
inactive: dose: 50.0 mg/kg/injection, schedule: Q01DX001 (sc), vehicle: steriod suspending solution 102 % of control | [11] 98 % of control | [12] 98 % of control | [13] 102 % of control

C[C@]12CC[C@H]3[C@@H](CC=C4C[C@@H](O)CC[C@@]43C)[C@@H]1CC[C@@H]2N
inactive: [11] 98 % of control | dose: 100.0 mg/kg/injection, schedule: Q04DX002 (ip), vehicle: saline with Tween-80 105 % of control | [12] 101 % of control | dose: 200.0 mg/kg/injection, schedule: Q04DX002 (ip), vehicle: saline with Tween-80 112 % of control | [13] 101 % of control | dose: 400.0 mg/kg/injection, schedule: Q04DX002 (ip), vehicle: saline with Tween-80 118 % of control

CO/N=C(/CSS(=O)(=O)O)c1ccccc1
inactive: [2] 96 % of control | [3] 96 % of control | dose: 400.0 mg/kg/injection, schedule: Q04DX002 (ip), vehicle: Klucel (hydroxypropylcellulose) (HPC) 96 % of control

O=C(O)/C=C\Cl
inactive: [1] 104 % of control | dose: 50.0 mg/kg/injection, schedule: Q01DX009 (ip), vehicle: saline 98 % of control | [10] 96 % of control | dose: 100.0 mg/kg/injection, schedule: Q04DX002 (ip), vehicle: saline 100 % of control and 94 % of control | dose: 200.0 mg/kg/injection, schedule: Q04DX002 (ip), vehicle: saline 93 % of control and 105 % of control | dose: 400.0 mg/kg/injection, schedule: Q04DX002 (ip), vehicle: saline 102 % of control
